Experimental data published in patent US9550792B2, “Polycyclic substituted pyrazole kinase activity inhibitors and use thereof” (priority 2013, dated 2017).

Tests used:
Aurora A = target: T1, Aurora A (Homo sapiens, UniProt O14965); assay: Inhibitory activity to Aurora A (FRET); assay type: biochemical; settings: 1 × 10^−6 mol/L
T1 construct: purchased
T1 sequence (O14965 1-403): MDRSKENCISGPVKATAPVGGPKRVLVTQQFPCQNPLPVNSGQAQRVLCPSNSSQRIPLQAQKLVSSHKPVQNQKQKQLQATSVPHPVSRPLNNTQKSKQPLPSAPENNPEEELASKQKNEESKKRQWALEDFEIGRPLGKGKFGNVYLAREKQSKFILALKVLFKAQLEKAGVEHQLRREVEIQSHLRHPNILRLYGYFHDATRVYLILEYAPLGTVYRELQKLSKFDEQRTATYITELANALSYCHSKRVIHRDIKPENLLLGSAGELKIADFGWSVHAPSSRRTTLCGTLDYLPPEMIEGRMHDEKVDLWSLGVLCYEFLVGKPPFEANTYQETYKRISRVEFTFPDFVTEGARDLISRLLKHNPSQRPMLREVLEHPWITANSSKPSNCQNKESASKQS
Procedure: The inhibitory activities of the synthesized compounds for Aurora A is determined by fluorescence resonance energy transfer (FRET) and were compared with the positive control drug so as to screen the compounds with better activities. Aurora A was purchased in the form of a kit or obtained through purification. Procedures: Aurora A is diluted to a suitable concentration with kinase diluent. The kinase reaction mixture contains Aurora A, peptide substrate, HEPES (pH7.5), BRIJ-35, MgCl2 and EDTA. Aurora A phospho-peptide substrate is used as the control of 100% phosphorylation and ATP-free as the control of 0% phosphorylation. After 1 h, the diluted Development Reagent A is added into the reaction system. Then the reaction is allowed to proceed for 1 h and then quenched with Stop Reagent. The excitation wavelength is 400 nm and the fluorescence intensity is detected at 445 nm (coumarin) and 520 nm (fluorescein). The inhibitions of the tested compounds are calculated according to the formula.

CDK2/A = target: T2, CDK2/A (Homo sapiens, UniProt P24941); assay: Inhibitory activity to CDK2 (FRET); assay type: biochemical; settings: 1 × 10^−6 mol/L
T2 construct: purchased
Procedure: CDK2/A was purchased in the form of a kit or obtained through purification.
Procedures: CDK2/A is diluted to a suitable concentration with kinase diluent. The kinase reaction mixture contains CDK2/A, peptide substrate, HEPES (pH7.5), BRIJ-35, MgCl2 and EDTA. CDK2 phospho-peptide substrate is used as the control of 100% phosphorylation and ATP-free as the control of 0% phosphorylation. After 1 h, the diluted Development Reagent A is added into the reaction system. Then the reaction is allowed to proceed for 1 h and then quenched with Stop Reagent. […] The inhibitions of the tested compounds are calculated according to the formula.

Row | Molecule | Aurora A inhibition % (1 × 10^−6 mol/L) (Aurora A) | CDK2 inhibition % (1 × 10^−6 mol/L) (CDK2/A)
1 | Cc1csc2ncnc(Nc3c[nH]nc3C(=O)Nc3ccc(CN4CCOCC4)cc3)c12 [Compound I-6, 4-(4-(5-methylthieno[2,3-d]pyrimidinyl)amino)-N-(4-((4-morpholinyl)methyl)phenyl)-1H-3-pyrazolecarboxamide] | 54.80% | 60.68%
2 | Cc1csc2c(Nc3c[nH]nc3C(=O)Nc3ccc(CN4CCN(C)CC4)cc3)nccc12 [Compound I-31, 4-(7-(3-methylthieno[2,3-c]pyridyl)amino)-N-(4-((4-methyl-1-piperazinyl)methyl)phenyl)-1H-3-pyrazolecarboxamide] | 70.27% | 45.34%
3 | CN1CCN(Cc2ccc(NC(=O)c3n[nH]cc3Nc3nccc4occc34)cc2)CC1 [Compound I-33, 4-(4-furo[3,2-c]pyridylamino)-N-(4-((4-methyl-1-piperazinyl)menthyl)phenyl)-1H-3-pyrazolecarboxamide] | 45.08% | 44.93%
4 | Cc1sc2ncnc(Nc3c[nH]nc3C(=O)Nc3ccc(CN4CCOCC4)cc3)c2c1C [Compound I-8, 4-(4-(5,6-dimethylthieno[2,3-d]pyrimidinyl)amino)-N-(4-((4-morpholinyl)methyl)phenyl)-1H-3-pyrazolecarboxamide] | 48.49% | 54.65%
5 | Cc1cc2c(Nc3c[nH]nc3C(=O)Nc3ccc(CN4CCOCC4)cc3)nccc2o1 [Compound I-36, 4-(4-(2-methylfuro[3,2-c]pyridyl)amino)-N-(4-((4-morpholinyl)methyl)phenyl)-1H-3-pyrazolecarboxamide] | 56.23% | 64.51%
6 | Cc1sc2ncnc(Nc3c[nH]nc3C(=O)Nc3ccc(CN4CCN(C)CC4)cc3)c2c1C [Compound I-7, 4-(4-(5,6-dimethylthieno[2,3-d]pyrimidinyl)amino)-N-(4-((4-methyl-1-piperazinyl)methyl)phenyl)-1H-3-pyrazolecarboxamide] | 54.93% | 65.12%
7 | Cc1csc2c(Nc3c[nH]nc3C(=O)Nc3ccc(CN4CCOCC4)cc3)nccc12 [Compound I-32, 4-(7-(3-methylthieno[2,3-c]pyridyl)amino)-N-(4-((4-morpholinyl)methy)phenyl)-1H-3-pyrazolecarboxamide] | 67.45% | 38.28%
8 | Cc1cc2c(Nc3c[nH]nc3C(=O)Nc3ccc(CN4CCOCC4)cc3)ncnc2s1 [Compound I-4, 4-(4-(6-methylthieno[2,3-d]pyrimidinyl)amino)-N-(4-((4-morpholinyl)methyl)phenyl)-1H-3-pyrazolecarboxamide] | 64.46% | 52.73%
9 | CN1CCN(Cc2ccc(NC(=O)c3n[nH]cc3Nc3nccc4cc[nH]c34)cc2)CC1 [Compound I-43, 4-(7-(1H-pyrrolo[2,3-c]pyridyl)amino)-N-(4-((4-methyl-1-piperazinyl)methyl)phenyl)-1H-3-pyrazolecarboxamide] | 55.02% | 76.09%
10 | O=C(Nc1ccc(CN2CCOCC2)cc1)c1n[nH]cc1Nc1ncnc2[nH]ccc12 [Compound I-12, 4-(4-(7H-pyrrolo[2,3-d]pyrimidinyl)amino)-N-(4-((4-morpholinyl)methyl)phenyl)-1H-3-pyrazolecarboxamide] | 49.44% | 66.39%
11 | Cc1cc2c(Nc3c[nH]nc3C(=O)Nc3ccc(CN4CCOCC4)cc3)ncnc2[nH]1 [Compound I-14, 4-(4-(6-methyl-7H-pyrrolo[2,3-d]pyrimidinyl)amino)-N-(4-((4-morpholinyl)methyl)phenyl)-1H-3-pyrazolecarboxamide] | 66.26% | 65.78%
12 | O=C(Nc1ccc(CN2CCOCC2)cc1)c1n[nH]cc1Nc1ncnc2cc[nH]c12 [Compound I-18, 4-(4-(5H-pyrrolo[3,2-d]pyrimidinyl)amino)-N-(4-((4-morpholinyl)methyl)phenyl)-1H-3-pyrazolecarboxamide] | 53.66% | 64.99%
13 | Cc1cc2c(Nc3c[nH]nc3C(=O)Nc3ccc(CN4CCOCC4)cc3)nccc2s1 [Compound I-28, 4-(4-(2-methylthieno[3,2-c]pyridyl)amino)-N-(4-((4-morpholinyl)methyl)phenyl)-1H-3-pyrazolecarboxamide] | 67.63% | 76.91%
14 | Cc1cc2ccnc(Nc3c[nH]nc3C(=O)Nc3ccc(CN4CCN(C)CC4)cc3)c2[nH]1 [Compound I-45, 4-(7-(2-methyl-1H-pyrrolo[2,3-c]pyridyl)amino)-N-(4-((4-methyl-1-piperazinyl)methyl)phenyl)-1H-3-pyrazolecarboxamide] | 63.21% | 60.11%
15 | Cc1cc2c(Nc3c[nH]nc3C(=O)Nc3ccc(CN4CCN(C)CC4)cc3)nccc2o1 [Compound I-35, 4-(4-(2-methylfuro[3,2-c]pyridyl)amino)-N-(4-((4-methyl-1-piperazinyl)methyl)phenyl)-1H-3-pyrazolecarboxamide] | 55.99% | 73.23%
16 | Cc1csc2ncnc(Nc3c[nH]nc3C(=O)Nc3ccc(CN4CCN(C)CC4)cc3)c12 [Compound I-5, 4-(4-(5-methylthieno[2,3-d]pyrimidinyl)amino)-N-(4-((4-methyl-1-piperazinyl)methyl)phenyl)-1H-3-pyrazolecarboxamide] | 58.62% | 51.24%
17 | Cc1cc2ncnc(Nc3c[nH]nc3C(=O)Nc3ccc(CN4CCOCC4)cc3)c2[nH]1 [Compound I-20, 4-(4-(6-methyl-5H-pyrrolo[3,2-d]pyrimidinyl)amino)-N-(4-((4-morpholinyl)methyl)phenyl)-1H-3-pyrazolecarboxamide] | 60.72% | 62.25%
18 | 4-(7-(1H-pyrrolo[2,3-c]pyridyl)amino)-N-(4-((4-morpholinyl)methyl)phenyl)-1H-3-pyrazolecarboxamide [Compound I-44] | 54.94% | 75.91%
19 | Cc1cc2ccnc(Nc3c[nH]nc3C(=O)Nc3ccc(CN4CCOCC4)cc3)c2[nH]1 [Compound I-46, 4-(7-(2-methyl-1H-pyrrolo[2,3-c]pyridyl)amino)-N-(4-((4-morpholinyl)methyl)phenyl)-1H-3-pyrazolecarboxamide] | 60.73% | 68.57%
